Data as given in the supplement of paper PMC10307832.

Assays:
Experiment in all cases: relative viability (nuclei count vs DMSO), 5 days (fraction); higher = more cells survive
[1] = system: COR-L 105
Procedure, shortened: (§1)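 Relative viability equals treated-well nuclei counts divided by vehicle-well nuclei counts. Counts came from 4× images of lung cancer cell lines grown in 1536-well plates for 5 days after pin-tool dosing on the day after seeding. Dosing used one drug alone or a fixed anchor-drug dose plus five library-drug doses (not always all listed) in √10 steps, and values are medians of duplicate plates.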

[2] = system: NCI-H838
Procedure, shortened: as §1

[3] = system: NCI-H2347
Procedure, shortened: as §1

[4] = system: NCI-H1915
Procedure, shortened: as §1

[5] = system: COR-L23
Procedure, shortened: as §1

[6] = system: NCI-H1437
Procedure, shortened: as §1

[7] = system: NCI-H520
Procedure, shortened: as §1

[8] = system: NCI-H1651
Procedure, shortened: as §1

[9] = system: LCLC-97TM1
Procedure, shortened: as §1

[10] = system: PC-3 [JPC-3]
Procedure, shortened: as §1

[11] = system: NCI-H1993
Procedure, shortened: as §1

[12] = system: NCI-H441
Procedure, shortened: as §1

[13] = system: CAL-12T
Procedure, shortened: as §1

[14] = system: NCI-H2009
Procedure, shortened: as §1

[15] = system: LXF-289
Procedure, shortened: as §1

[16] = system: A-427
Procedure, shortened: as §1

[17] = system: HOP-62
Procedure, shortened: as §1

[18] = system: NCI-H460
Procedure, shortened: as §1

[19] = system: NCI-H2023
Procedure, shortened: as §1

Compound `Oc1nc(-c2ccc(C(F)(F)F)cc2)nc2c1CSCC2` [XAV939] + CC1(C)CCC(c2ccc(Cl)cc2)=C(CN2CCN(c3ccc(C(=O)NS(=O)(=O)c4ccc(N[C@H](CCN5CCOCC5)CSc5ccccc5)c(S(=O)(=O)C(F)(F)F)c4)cc3)CC2)C1 [Navitoclax] (partner 0.5 µM) has a relative viability ([1]; first compound 0.08 µM) of 0.754, a relative viability ([1]; first compound 0.253 µM) of 0.62 and a relative viability ([1]; first compound 0.8 µM) of 0.637. It also gave a relative viability ([1]; first compound 2.53 µM) of 0.458, a relative viability ([2]; first compound 0.08 µM) of 1.21 and a relative viability ([2]; first compound 0.253 µM) of 0.994. The relative viability ([2]; first compound 0.8 µM) was 1.07, the relative viability ([2]; first compound 2.53 µM) was 0.868 and the relative viability ([3]; first compound 0.08 µM) was 0.788. The relative viability ([3]; first compound 0.253 µM) was 0.886, the relative viability ([3]; first compound 0.8 µM) was 0.75 and the relative viability ([3]; first compound 2.53 µM) was 0.698. The relative viability ([4]; first compound 0.08 µM) was 0.813, the relative viability ([4]; first compound 0.253 µM) was 0.793 and the relative viability ([4]; first compound 0.8 µM) was 0.769. For the same compound, the relative viability ([4]; first compound 2.53 µM) was 0.792, the relative viability ([5]; first compound 0.08 µM) was 1 and the relative viability ([5]; first compound 0.253 µM) was 0.855. For the same compound, the relative viability ([5]; first compound 0.8 µM) was 0.948, the relative viability ([5]; first compound 2.53 µM) was 0.892 and the relative viability ([6]; first compound 0.08 µM) was 1.14. The relative viability ([6]; first compound 0.253 µM) was 0.931, the relative viability ([6]; first compound 0.8 µM) was 1.12 and the relative viability ([6]; first compound 2.53 µM) was 0.888. For the same compound, the relative viability ([7]; first compound 0.08 µM) was 1.21, the relative viability ([7]; first compound 0.253 µM) was 0.988 and the relative viability ([7]; first compound 0.8 µM) was 0.861. The relative viability ([7]; first compound 2.53 µM) was 0.885, the relative viability ([8]; first compound 0.08 µM) was 1.12 and the relative viability ([8]; first compound 0.253 µM) was 1.01. The relative viability ([8]; first compound 0.8 µM) was 0.995, the relative viability ([8]; first compound 2.53 µM) was 0.894 and the relative viability ([9]; first compound 0.08 µM) was 0.534. It also gave a relative viability ([9]; first compound 0.253 µM) of 0.399, a relative viability ([9]; first compound 0.8 µM) of 0.621 and a relative viability ([9]; first compound 2.53 µM) of 0.294. For the same compound, the relative viability ([10]; first compound 0.08 µM) was 0.728, the relative viability ([10]; first compound 0.253 µM) was 0.737 and the relative viability ([10]; first compound 0.8 µM) was 0.814. It also gave a relative viability ([10]; first compound 2.53 µM) of 0.724, a relative viability ([11]; first compound 0.8 µM) of 0.698 and a relative viability ([11]; first compound 2.53 µM) of 0.787. It also gave a relative viability ([12]; first compound 0.08 µM) of 0.571, a relative viability ([12]; first compound 0.253 µM) of 0.683 and a relative viability ([12]; first compound 0.8 µM) of 0.487. For the same compound, the relative viability ([12]; first compound 2.53 µM) was 0.973, the relative viability ([13]; first compound 0.08 µM) was 1.39 and the relative viability ([13]; first compound 0.253 µM) was 1.07. For the same compound, the relative viability ([13]; first compound 0.8 µM) was 1.28, the relative viability ([13]; first compound 2.53 µM) was 1.03 and the relative viability ([14]; first compound 0.08 µM) was 1.17. For the same compound, the relative viability ([14]; first compound 0.253 µM) was 1.12, the relative viability ([14]; first compound 0.8 µM) was 1.13 and the relative viability ([14]; first compound 2.53 µM) was 1.06. It also gave a relative viability ([15]; first compound 0.08 µM) of 0.92, a relative viability ([15]; first compound 0.253 µM) of 0.911 and a relative viability ([15]; first compound 0.8 µM) of 0.949. It also gave a relative viability ([15]; first compound 2.53 µM) of 0.972, a relative viability ([16]; first compound 0.08 µM) of 1.03 and a relative viability ([16]; first compound 0.253 µM) of 0.989. The relative viability ([16]; first compound 0.8 µM) was 0.9, the relative viability ([16]; first compound 2.53 µM) was 0.809 and the relative viability ([17]; first compound 0.08 µM) was 1.08. The relative viability ([17]; first compound 0.253 µM) was 1.02, the relative viability ([17]; first compound 0.8 µM) was 0.995 and the relative viability ([17]; first compound 2.53 µM) was 0.932. The relative viability ([18]; first compound 0.08 µM) was 1.38, the relative viability ([18]; first compound 0.253 µM) was 1.03 and the relative viability ([18]; first compound 0.8 µM) was 1.1. The relative viability ([18]; first compound 2.53 µM) was 1.16, the relative viability ([19]; first compound 0.08 µM) was 0.968 and the relative viability ([19]; first compound 0.253 µM) was 0.843. For the same compound, the relative viability ([19]; first compound 0.8 µM) was 0.862 and the relative viability ([19]; first compound 2.53 µM) was 0.827.
